Earlier results as cited in patent US20110091560A1, “COMPOSITIONS OF NANOPARTICLES AND METHODS OF MAKING THE SAME” (The Burnham Institute for Medical Research, priority 2009, published 2011).
Structures can show the parent of a compound that is named as a salt. Where two headings read alike, the source gives them in different places.

Conditions: Log P, octanol and water

SMILES	Partition Coefficient	Partition Coefficient (listed as paclitaxel)
O=C(CCCCCCC(=O)Nc1ccccc1)NO [Vorinostat (SAHA), Vorinostat]	1.4	–
O=P(O)(O)C(O)(Cc1cccnc1)P(=O)(O)O [Risedronate]	−5.8	–
O=P(O)(O)C(Cl)(Cl)P(=O)(O)O [Clodronate]	−5.6	–
Cc1[nH]c2ccccc2c1CCNCc1ccc(/C=C/C(=O)NO)cc1 [Panobinostat]	2.8	–
Nc1nc(F)nc2c1ncn2[C@@H]1O[C@H](CO)[C@@H](O)[C@@H]1O [fludarabine]	−1.3	–
C[C@]1(c2nc3c(C(N)=O)cccc3[nH]2)CCCN1 [Veliparib (ABT-888), Veliparib]	1	–
CO[C@H]1C[C@@H]2CC[C@@H](C)[C@@](O)(O2)C(=O)C(=O)N2CCCC[C@H]2C(=O)O[C@H]([C@H](C)C[C@@H]2CC[C@@H](OC(=O)C(C)(CO)CO)[C@H](OC)C2)CC(=O)[C@H](C)/C=C(\C)[C@@H](O)[C@@H](OC)C(=O)[C@H](C)C[C@H](C)/C=C/C=C/C=C/1C [Temsirolimus]	6.8	–
O=C(c1ccc(OCCN2CCCCC2)cc1)c1c(-c2ccc(O)cc2)sc2cc(O)ccc12 [Raloxifene]	6.3	–
O=C(/C=C/c1cccc(S(=O)(=O)Nc2ccccc2)c1)NO [Belinostat]	1	–
CN(C)CCOc1ccc(/C(=C(/CCCl)c2ccccc2)c2ccccc2)cc1 [Toremifene]	5.7	–
C[C@]12CC[C@@H]3c4ccc(O)cc4C[C@@H](CCCCCCCCC[S+]([O-])CCCC(F)(F)C(F)(F)F)[C@H]3[C@@H]1CC[C@@H]2O (some centres unmarked) [Fulvestrant (SERD), Fulvestrant]	8.5	–
N#Cc1ccc(C(c2ccc(C#N)cc2)n2cncn2)cc1 [Letrozole]	3.1	–
CCCC(CCC)C(=O)O [Valproic acid]	2.6	–
O=P(O)(O)C(Sc1ccc(Cl)cc1)P(=O)(O)O [Tiludronate]	2.3	–
CC(=O)O[C@H]1C(=O)[C@@]2(C)[C@H]([C@H](OC(=O)c3ccccc3)[C@]3(O)C[C@H](OC(=O)[C@H](O)[C@@H](NC(=O)c4ccccc4)c4ccccc4)C(C)=C1C3(C)C)[C@]1(OC(C)=O)CO[C@@H]1C[C@@H]2O [Paclitaxel]	3.6	about 3.6
CN(Cc1cnc2nc(N)nc(N)c2n1)c1ccc(C(=O)N[C@@H](CCC(=O)O)C(=O)O)cc1 [methotrexate]	−0.7	–
CO[C@H]1C[C@@H]2CC[C@@H](C)[C@@](O)(O2)C(=O)C(=O)N2CCCC[C@H]2C(=O)O[C@H]([C@H](C)C[C@@H]2CC[C@@H](OCCO)[C@H](OC)C2)CC(=O)[C@H](C)/C=C(\C)[C@@H](O)[C@@H](OC)C(=O)[C@H](C)C[C@H](C)/C=C/C=C/C=C/1C [Everolimus]	6.8	–
C[C@]12CCC(=O)C(O)=C1CC[C@@H]1[C@@H]2CC[C@]2(C)C(=O)CC[C@@H]12 [Formestane]	3.1	–
Nc1ccccc1NC(=O)c1ccc(CNc2nccc(-c3cccnc3)n2)cc1 [Mocetinostat]	2.7	–
COc1cc([C@@H]2c3cc4c(cc3[C@@H](O[C@@H]3O[C@@H]5CO[C@@H](C)O[C@H]5[C@H](O)[C@H]3O)[C@H]3COC(=O)[C@H]23)OCO4)cc(OC)c1O [etoposide]	0.06	–

SMILES	Partition Coefficient	Partition Coefficient (listed as paclitaxel)
CS(=O)(=O)CCNCc1ccc(-c2ccc3ncnc(Nc4ccc(OCc5cccc(F)c5)c(Cl)c4)c3c2)o1 [Lapatinib]	5.1	–
O=c1[nH]cc(F)c(=O)[nH]1 [Example 5-FU, 5-FU]	−0.6	–
CO[C@H]1C[C@@H]2CC[C@@H](C)[C@@](O)(O2)C(=O)C(=O)N2CCCC[C@H]2C(=O)O[C@H]([C@H](C)C[C@@H]2CC[C@@H](O)[C@H](OC)C2)CC(=O)[C@H](C)/C=C(\C)[C@@H](O)[C@@H](OC)C(=O)[C@H](C)C[C@H](C)/C=C/C=C/C=C/1C [Rapamycin]	6.9	–
C#Cc1cccc(Nc2ncnc3cc(OCCOC)c(OCCOC)cc23)c1 [Erlotinib HCl]	3.9	–
Nc1ccn([C@@H]2O[C@H](CO)[C@@H](O)C2(F)F)c(=O)n1 [gemcitabine]	−1.4	–
Cc1nc(N)nc(N)c1-c1ccc(Cl)c(Cl)c1 [Metoprine]	2.6	–
COc1cc2ncnc(Nc3ccc(F)c(Cl)c3)c2cc1OCCCN1CCOCC1 [Gefitinib]	4.5	–
CCCCCN(C)CCC(O)(P(=O)(O)O)P(=O)(O)O [Ibandronate sodium]	−4.4	–
C=CCNC1=C2C[C@@H](C)C[C@H](OC)[C@H](O)[C@@H](C)/C=C(\C)[C@H](OC(N)=O)[C@@H](OC)/C=C\C=C(/C)C(=O)NC(=CC1=O)C2=O [Example 17-AAG, 17-AAG]	3.4	–
O=C(/C=C/c1ccc(CN(CCO)CCc2c[nH]c3ccccc23)cc1)NO [Dacinostat]	2.1	–
Nc1ccccc1NC(=O)c1ccc(CNC(=O)OCc2cccnc2)cc1 [Entinostat]	3.1	–
NC(=O)N1CCC(CC(=O)N2CCC([C@H]3c4ncc(Br)cc4CCc4cc(Cl)cc(Br)c43)CC2)CC1 [Lonafarnib]	3.1	–
CC1=C(CO)C2=C(C)C3(CC3)[C@@](C)(O)C(=O)C2=C1 [Irofulven]	4.7	–
CC(C)(C#N)c1cc(Cn2cncn2)cc(C(C)(C)C#N)c1 [Anastrozole]	3.5	–
CC(C)C[C@H](NC(=O)[C@H](Cc1ccccc1)NC(=O)c1cnccn1)B(O)O [Bortezomib]	−0.4	–
CC(O)(P(=O)(O)O)P(=O)(O)O [Etidronate]	−6	–
C=C1C[C@@H]2[C@H](CC[C@]3(C)C(=O)CC[C@@H]23)[C@@]2(C)C=CC(=O)C=C12 [Exemestane]	3.8	–
Cc1nc(Nc2ncc(C(=O)Nc3c(C)cccc3Cl)s2)cc(N2CCN(CCO)CC2)n1 [Dasatinib]	3.9	–
O=P1(N(CCCl)CCCl)NCCCO1 (centres unmarked) [cyclosphosphamide]	0.3	–
NCCC(O)(P(=O)(O)O)P(=O)(O)O [Pamidronate]	−7	–
